We go through 22 compounds from patent US20260226084A1, “DUAL RAF AND TUBULIN INHIBITORS AND METHODS OF USE THEREOF” (Deciphera Pharmaceuticals, LLC, priority 2023, published 2026).

Molecules are shown by their SMILES. Like-named read-outs stand apart in the source and are kept apart here. Bounds are passed on as bounds.

Assay [1] relates to HCT-116 cells. The assay is described as follows: HCT-116 Cell Proliferation Assay. Format: cell-based. The settings on record: Table 2, read-out: Inhibition of cell proliferation in HCT-116 (IC50 class). In outline: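 HCT-116 cells, 375/well in McCoy's 5A with 10% FBS, exposed to serial compound dilutions in triplicate for 67 to 72 hours at 37 °C. Viability read by resazurin fluorescence (ex 540/em 600 nm) after a further 4 to 5 h; IC50 values calculated.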

The subject of assay [2] is MiaPaca-2 cells. The assay is described as follows: MiaPaca-2 Cell Proliferation Assay. The format is cell-based. The following applies: Table 2, read-out: Inhibition of cell proliferation in MiaPaca-2 (IC50 class). The gist of the method:
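Viability was read as resazurin fluorescence (540 nm excitation, 600 nm emission) after 5–6 h with dye. Compounds were tested as serial dilutions in triplicate, with IC50 derived from the dose–response.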

In assay [3] the target is T1, B-Raf kinase (SEQ ID NO: 1) (Homo sapiens, UniProt P15056).
T1 construct: GST (N); purchased Sigma
Put plainly: Biochemical Assay for B-Raf (coupled pyruvate kinase/lactate dehydrogenase assay). The following applies: 1 mM ATP; read-out: BRAF (inhibition of biochemical activity, IC50).

Assay [4] deals with HPAF-II cells. Put plainly: HPAF-II Cell Proliferation Assay. Format: cell-based. The settings on record: HPAF-II cells, Table 2, read-out: Inhibition of cell proliferation in HPAF-II (IC50 class). The gist of the method: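 HPAF-II cells (750/well) in complete MEM with 10% FBS were exposed to serially diluted compound in triplicate for 115–120 h at 37 °C, 5% CO2. Resazurin was then added for 18–24 h more; fluorescence (ex 540/em 600 nm) gave IC50.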

The target in assay [5] is T2, C-Raf kinase (SEQ ID NO: 2) (Homo sapiens, UniProt P04049, Y340D/Y341D).
T2 construct: C-Raf residues 306-end; Y340D, Y341D with; GST (N); purchased Sigma
The assay is described as follows: Biochemical Assay for C-Raf (coupled pyruvate kinase/lactate dehydrogenase assay). The settings on record: 1 mM ATP; read-out: CRAF (inhibition of biochemical activity, IC50).

The test system of assay [6] is Pa16c cells. Put plainly: Pa16c Cell Proliferation Assay. The following applies: Table 2, read-out: Inhibition of cell proliferation in Pa16c (IC50 class). Format: cell-based. The gist of the method:
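Mouse Pa16c cells, 750/well in DMEM with 10% FBS, exposed to serially diluted compound in triplicate for 67 to 72 h at 37° C. Viability read by resazurin reduction over a further 18 to 24 h (ex 540/em 600 nm). IC50 calculated from the dose-response.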

The mark [7] stands for this setting: Homo sapiens, HCT-116, HCT-116 cells.
[8] abbreviates: Homo sapiens, MIA PaCa-2, MiaPaca-2 cells.

T2 sequence (P04049 307-648 Y340D/Y341D): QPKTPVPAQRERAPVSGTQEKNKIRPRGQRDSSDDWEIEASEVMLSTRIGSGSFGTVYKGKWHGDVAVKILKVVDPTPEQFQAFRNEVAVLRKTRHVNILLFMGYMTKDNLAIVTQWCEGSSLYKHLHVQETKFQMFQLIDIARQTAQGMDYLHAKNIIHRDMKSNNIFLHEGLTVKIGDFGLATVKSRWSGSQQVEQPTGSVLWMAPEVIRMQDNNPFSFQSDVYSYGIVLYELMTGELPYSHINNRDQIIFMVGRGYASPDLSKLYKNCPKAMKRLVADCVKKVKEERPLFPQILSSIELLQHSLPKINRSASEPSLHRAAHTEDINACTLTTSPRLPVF
T1 sequence (P15056 416-766): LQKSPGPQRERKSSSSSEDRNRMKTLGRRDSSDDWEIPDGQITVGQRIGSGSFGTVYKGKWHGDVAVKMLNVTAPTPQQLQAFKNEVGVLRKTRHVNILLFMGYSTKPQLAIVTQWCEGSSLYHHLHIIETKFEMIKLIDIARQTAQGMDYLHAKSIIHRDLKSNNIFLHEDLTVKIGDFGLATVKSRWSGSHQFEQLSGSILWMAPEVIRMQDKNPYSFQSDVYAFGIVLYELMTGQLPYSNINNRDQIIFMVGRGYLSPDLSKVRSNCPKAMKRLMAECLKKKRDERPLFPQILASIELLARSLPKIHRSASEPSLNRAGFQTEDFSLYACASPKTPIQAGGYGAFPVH

`Cc1ccc(NC(=O)c2cc(C(F)(F)F)cnn2)cc1-c1ccnc(-c2ccnc(NC(=O)C(F)(F)F)c2)c1` [Example 106]: the IC50 in assay [1] (setting [7]) was < 0.1 µM; in assay [2] (setting [8]), < 0.1 µM; in assay [3], 0.1 to 0.5 µM; in assay [4] (Homo sapiens, HPAF-II), < 0.1 µM; in assay [5], < 0.1 µM; in assay [6] it was < 0.1 µM.
With `Cc1ccc(NC(=O)c2cc(C(F)(F)F)cnn2)cc1-c1ccnc(-c2ccnc(NC(=O)C3(C)CCC3)c2)c1` [Example 7], the IC50 in assay [1] (setting [7]) lay within 0.1 to 0.5 µM; in assay [2] (setting [8]) it was 0.1 to 0.5 µM; in assay [3], 0.5 to 1 µM; in assay [4] (Homo sapiens, HPAF-II) it was 0.1 to 0.5 µM; in assay [5], 0.1 to 0.5 µM; in assay [6] it was 0.1 to 0.5 µM.
On to `CC(=O)Nc1cc(-c2cncc(-c3cc(NC(=O)c4cc(C(F)(F)F)cnn4)ccc3C)c2)ncn1` [Example 71], for which the IC50 in assay [1] (HCT-116 cells) is 0.1 to 0.5 µM; in assay [2] (MiaPaca-2 cells) it was 0.5 to 1 µM; in assay [3], < 0.1 µM; in assay [4], 0.5 to 1 µM; in assay [5] it was < 0.1 µM; in assay [6] it was 1 to 10 µM.
`Cc1ccc(NC(=O)c2cc(C(F)(F)F)cnn2)cc1-c1ccnc(-c2cscn2)c1` [Example 142]: the IC50 in assay [1] (setting [7]) is 0.1 to 0.5 µM; in assay [2] (setting [8]) it was 0.5 to 1 µM; in assay [3], 0.5 to 1 µM; in assay [4] (Homo sapiens, HPAF-II) it was 0.1 to 0.5 µM; in assay [5], 0.5 to 1 µM; in assay [6], 0.1 to 0.5 µM.
With `Cc1ccc(NC(=O)c2cncc(C(F)(F)F)n2)cc1-c1cncc(-c2ccnc(NC(=O)C3CC3)c2)c1` [Example 5], the IC50 is 1 to 10 µM in assay [1] (setting [7]); 1 to 10 µM in assay [2] (setting [8]); < 0.1 µM in assay [3]; 1 to 10 µM in assay [4] (Homo sapiens, HPAF-II); < 0.1 µM in assay [5]; 1 to 10 µM in assay [6].
For `Cc1ccc(NC(=O)c2cc(C3CC3)cnn2)cc1-c1cc(-c2ccnc(NC(=O)C3CC3)c2)nc(NCCO)n1` [Example 15], the IC50 was < 0.1 µM in assay [1] (setting [7]); 0.1 to 0.5 µM in assay [2] (setting [8]); < 0.1 µM in assay [3]; 1 to 10 µM in assay [4] (Homo sapiens, HPAF-II); < 0.1 µM in assay [5]; 1 to 10 µM in assay [6].
In the case of `Cc1ccc(NC(=O)c2cc(C(F)(F)F)cnn2)cc1-c1ccnc(-c2ccnc(NC(=O)C3CCN(C)C3)c2)c1` (stereo not drawn) [Example 51], the IC50 was 0.1 to 0.5 µM in assay [1] (setting [7]); 0.1 to 0.5 µM in assay [2] (setting [8]); < 0.1 µM in assay [3]; 0.1 to 0.5 µM in assay [4] (Homo sapiens, HPAF-II); < 0.1 µM in assay [5]; 0.5 to 1 µM in assay [6].
On to `Cc1ccc(NC(=O)c2ccc(C(F)F)nc2)cc1-c1ccnc(-c2ccnc(NC(=O)C3CC3)c2)n1` [Example 70], for which the IC50 in assay [1] (setting [7]) was 0.1 to 0.5 µM; in assay [2] (setting [8]), 0.1 to 0.5 µM; in assay [3], < 0.1 µM; in assay [4] (Homo sapiens, HPAF-II) it was 0.1 to 0.5 µM; in assay [5], < 0.1 µM; in assay [6], 1 to 10 µM.
`Cc1ccc(NC(=O)c2cc(C(F)(F)F)cnn2)cc1-c1ccnc(-c2ccnc(NC(=O)CC3CC3)c2)c1` [Example 22]: the IC50 in assay [1] (setting [7]) is 0.1 to 0.5 µM; in assay [2] (setting [8]), 0.1 to 0.5 µM; in assay [3] it was 0.1 to 0.5 µM; in assay [4] (Homo sapiens, HPAF-II) it was < 0.1 µM; in assay [5] it was < 0.1 µM; in assay [6], < 0.1 µM.
Regarding `Cc1ccc(NC(=O)c2cc(C(F)(F)F)cnn2)cc1-c1cncc(-c2ccnc(NC(=O)C3CC3)c2)c1` [Example 39], the IC50 in assay [1] (setting [7]) was 0.1 to 0.5 µM; in assay [2] (setting [8]), 0.5 to 1 µM; in assay [3] it was < 0.1 µM; in assay [4] (Homo sapiens, HPAF-II) it was 0.5 to 1 µM; in assay [5], < 0.1 µM; in assay [6], 0.1 to 0.5 µM.
Turning to `Cc1ccc(NC(=O)c2cc(Cl)cnn2)cc1-c1ccnc(-c2ccnc(NC(=O)C3CC3)c2)c1` [Example 40], the IC50 in assay [1] (setting [7]) was 0.1 to 0.5 µM; in assay [2] (setting [8]), 0.5 to 1 µM; in assay [3], < 0.1 µM; in assay [4] (Homo sapiens, HPAF-II) it was 0.5 to 1 µM; in assay [5], < 0.1 µM; in assay [6], 0.5 to 1 µM.
On to `Cc1ccc(NC(=O)c2cc(C(F)(F)F)cnn2)cc1-c1ccnc(-c2ccnc(NC(=O)C3CN(C)CC3(F)F)c2)c1` (stereo not drawn) [Example 94, N-(3-(2′-(4,4-difluoro-1-methylpyrrolidine-3-carboxamido)-[2,4′-bipyridin]-4-yl)-4-methylphenyl)-5-(trifluoromethyl)pyridazine-3-carboxamide], for which the IC50 was 0.1 to 0.5 µM in assay [1] (setting [7]); 0.5 to 1 µM in assay [2] (setting [8]); 0.1 to 0.5 µM in assay [3]; 1 to 10 µM in assay [4] (Homo sapiens, HPAF-II); < 0.1 µM in assay [5]; 1 to 10 µM in assay [6].
Take `COC(=O)Nc1cc(-c2ccnc(-c3cc(NC(=O)c4ccc(C(F)(F)F)nc4)ccc3C)n2)ccn1` [Example 6]: the IC50 in assay [1] (setting [7]) was 0.5 to 1 µM; in assay [2] (setting [8]), 1 to 10 µM; in assay [3], < 0.1 µM; in assay [4] (Homo sapiens, HPAF-II), 1 to 10 µM; in assay [5] it was < 0.1 µM; in assay [6], 1 to 10 µM.
For `Cc1ccc(NC(=O)c2cc(C3CC3)cnn2)cc1-c1ccnc(-c2cnn(C)n2)c1` [Example 141], the IC50 in assay [1] (setting [7]) lay in the range of 0.5 to 1 µM; in assay [2] (setting [8]), 0.5 to 1 µM; in assay [3], 0.1 to 0.5 µM; in assay [4] (Homo sapiens, HPAF-II) it was 0.5 to 1 µM; in assay [5], 0.1 to 0.5 µM; in assay [6], 0.5 to 1 µM.
Turning to `Cc1ccc(NC(=O)c2cc(C(F)(F)F)cnn2)cc1-c1ccnc(-c2ccnc(N)c2)c1` [Example 2, N-(3-(2′-amino-[2,4′-bipyridin]-4-yl)-4-methylphenyl)-5-(trifluoromethyl)pyridazine-3-carboxamide], the IC50 was < 0.1 µM in assay [1] (setting [7]); < 0.1 µM in assay [2] (setting [8]); < 0.1 µM in assay [3]; < 0.1 µM in assay [4] (Homo sapiens, HPAF-II); < 0.1 µM in assay [5]; < 0.1 µM in assay [6].
Turning to `Cc1ccc(NC(=O)c2cc(C(F)(F)F)cnn2)cc1-c1ccnc(-c2ccnc(NC(=O)CC3(C)CC3)c2)c1` [Example 90], the IC50 in assay [1] (setting [7]) lay in the range of 0.1 to 0.5 µM; in assay [2] (setting [8]), 0.1 to 0.5 µM; in assay [3] it was 0.1 to 0.5 µM; in assay [4] (Homo sapiens, HPAF-II), 0.1 to 0.5 µM; in assay [5], 0.1 to 0.5 µM; in assay [6] it was 1 to 10 µM.
Consider `Cc1ccc(NC(=O)c2cc(C(F)(F)F)cnn2)cc1-c1ccnc(-c2ccnc(NC(=O)C3(F)CC3)c2)c1` [Example 4, N-(3-(2′-(1-fluorocyclopropane-1-carboxamido)-[2,4′-bipyridin]-4-yl)-4-methylphenyl)-5-(trifluoromethyl)pyridazine-3-carboxamide], for which the IC50 in assay [1] (setting [7]) is 0.1 to 0.5 µM; in assay [2] (setting [8]), 0.1 to 0.5 µM; in assay [3], < 0.1 µM; in assay [4] (Homo sapiens, HPAF-II), 0.1 to 0.5 µM; in assay [5], < 0.1 µM; in assay [6], 0.1 to 0.5 µM.
Take `Cc1ccc(NC(=O)c2cncc(C(C)(F)F)c2)cc1-c1cncc(-c2cc(NC(=O)C3CC3)ncn2)c1` [Example 109]: the IC50 in assay [1] (setting [7]) was < 0.1 µM; in assay [2] (setting [8]), 0.1 to 0.5 µM; in assay [3] it was < 0.1 µM; in assay [4] (Homo sapiens, HPAF-II), 0.1 to 0.5 µM; in assay [5] it was < 0.1 µM; in assay [6], 1 to 10 µM.
As to `Cc1ccc(NC(=O)c2cc(C(C)(F)F)cnn2)cc1-c1ccnc(-c2cncn2C)c1` [Example 138], the IC50 in assay [1] (setting [7]) was 0.1 to 0.5 µM; in assay [2] (setting [8]), 0.1 to 0.5 µM; in assay [3], < 0.1 µM; in assay [4] (Homo sapiens, HPAF-II), 0.1 to 0.5 µM; in assay [5], < 0.1 µM; in assay [6], 0.1 to 0.5 µM.
Take `O=C(Nc1ccc(F)c(-c2ccnc(-c3ccnc(NC(=O)C4CC4)c3)c2)c1)c1cc(C(F)(F)F)cnn1` [Example 47]: the IC50 in assay [1] (setting [7]) was 1 to 10 µM; in assay [2] (setting [8]), 1 to 10 µM; in assay [3], < 0.1 µM; in assay [4] (Homo sapiens, HPAF-II), 1 to 10 µM; in assay [5] it was < 0.1 µM; in assay [6], 1 to 10 µM.
For `Cc1ccc(NC(=O)c2cc(C(C)(F)F)cnn2)cc1-c1ccnc(-c2cnn(C)n2)c1` [Example 140], the IC50 was 0.1 to 0.5 µM in assay [1] (setting [7]); 0.1 to 0.5 µM in assay [2] (setting [8]); 0.1 to 0.5 µM in assay [3]; 0.5 to 1 µM in assay [4] (Homo sapiens, HPAF-II); < 0.1 µM in assay [5]; 1 to 10 µM in assay [6].
With `Cc1ncc(NC(=O)c2cc(C(F)(F)F)cnn2)cc1-c1ccnc(-c2ccnc(NC(=O)C3CC3)c2)c1` [Example 34], the IC50 in assay [1] (setting [7]) is 1 to 10 µM; in assay [2] (setting [8]), 1 to 10 µM; in assay [3], < 0.1 µM; in assay [4] (Homo sapiens, HPAF-II) it was 1 to 10 µM; in assay [5], < 0.1 µM; in assay [6], 1 to 10 µM.
